Assays:
Type in all cases: cell-based
E. coli ESBL4 CTX-M-15 = experiment: Broth microdilution MIC, E. coli ESBL4; settings: Escherichia coli, ESBL4CTXM15; fixed ceftazidime 4 μg/mL, CAMHB, 16-20 hours 37° C.; read-out: MIC of exemplary compounds in presence of fixed β-lactams, Fixed CAZ, E. coli ESBL4 CTX-M-15
Method in brief: (§1)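 Strains grew 3-5 hours in CAMHB before use. Serial 2-fold compound dilutions (final 32 to 0.25 μg/mL) were overlaid with β-lactam at a constant 4 μg/ml, inoculated following CLSI, then incubated 16-20 h at 37° C before visual MIC determination.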

E. cl 144200 p99 AmpC = experiment: Broth microdilution MIC, E. cloacae 144200; settings: Enterobacter cloacae; fixed ceftazidime 4 μg/mL, CAMHB, 16-20 hours 37° C.; read-out: MIC of exemplary compounds in presence of fixed β-lactams, Fixed CAZ, E. cl 144200 p99 AmpC
Method in brief: as §1

K.P. 156319 KPC-3 = experiment: Broth microdilution MIC, K. pneumoniae 156319; settings: Klebsiella pneumoniae; fixed meropenem 4 μg/mL, CAMHB, 16-20 hours 37° C.; read-out: MIC of exemplary compounds in presence of fixed β-lactams, Fixed Mero, K.P. 156319 KPC-3
P. aerug. Ps296 VIM-2 = experiment: Broth microdilution MIC, P. aeruginosa Ps296; settings: Pseudomonas aeruginosa; fixed meropenem 4 μg/mL, CAMHB, 16-20 hours 37° C.; read-out: MIC of exemplary compounds in presence of fixed β-lactams, Fixed Mero, P. aerug. Ps296 VIM-2
Method in brief: as §1

K.P. A-1797 KPC-2 VIM-4 = experiment: Broth microdilution MIC, K. pneumoniae A-1797; settings: Klebsiella pneumoniae; fixed meropenem 4 μg/mL, CAMHB, 16-20 hours 37° C.; read-out: MIC of exemplary compounds in presence of fixed β-lactams, Fixed Mero, K.P. A-1797 KPC-2 VIM-4
S. aureus MSSA-7 PC-1 = experiment: Broth microdilution MIC, S. aureus MSSA-7; settings: Staphylococcus aureus, fixed piperacillin 4 μg/mL, CAMHB, 16-20 hours 37° C., read-out: MIC of exemplary compounds in presence of fixed β-lactams, Fixed Pip, S. aureus MSSA-7 PC-1

Row | SMILES | MIC (E. coli ESBL4 CTX-M-15) [µg/mL] | MIC (E. cl 144200 p99 AmpC) [µg/mL] | MIC (K.P. 156319 KPC-3) [µg/mL] | MIC (P. aerug. Ps296 VIM-2) [µg/mL] | MIC (K.P. A-1797 KPC-2 VIM-4) [µg/mL] | MIC (S. aureus MSSA-7 PC-1) [µg/mL]
1 | CN(C)[C@H]1CC[C@H](CC(=O)N[C@H]2Cc3cccc(C(=O)O)c3OB2O)CC1 [Example 14, (R)-3-(2-(trans-4-(dimethylamino)cyclohexyl)acetamido)-2-hydroxy-3,4-dihydro-2H-benzo[e][1,2]oxaborinine-8-carboxylic acid] | < 4 | < 4 | < 4 | > 32 | 8 to 32 | < 4
2 | NCCNC(=O)NC1CC(CC(=O)N[C@H]2Cc3cccc(C(=O)O)c3OB2O)C1 (stereo partly drawn) [Example 58, (R)-3-(2-(3-(3-(2-aminoethyl)ureido)cyclobutyl)acetamido)-2-hydroxy-3,4-dihydro-2H-benzo[e][1,2]oxaborinine-8-carboxylic acid] | < 4 | < 4 | < 4 | < 4 | < 4 | < 4
3 | CN(C)C[C@H]1CC[C@H](CC(=O)N(C)[C@H]2Cc3cccc(C(=O)O)c3OB2O)CC1 [Example 8, (R)-3-(2-(trans-4-((dimethylamino)methyl)cyclohexyl)-N-methylacetamido)-2-hydroxy-3,4-dihydro-2H-benzo[e][1,2]oxaborinine-8-carboxylic acid] | < 4 | < 4 | 8 to 32 | 8 to 32 | > 32 | < 4
4 | CN(C)CCN(C)[C@H]1CC[C@H](CC(=O)N[C@H]2Cc3cccc(C(=O)O)c3OB2O)CC1 [Example 23, (R)-3-(2-(trans-4-((2-(dimethylamino)ethyl)(methyl)amino)cyclohexyl)acetamido)-2-hydroxy-3,4-dihydro-2H-benzo[e][1,2]oxaborinine-8-carboxylic acid] | < 4 | < 4 | < 4 | > 32 | > 32 | < 4
5 | N=C(N)N1CCC(CN[C@H]2CC[C@H](CC(=O)N[C@H]3Cc4cccc(C(=O)O)c4OB3O)CC2)CC1 [Example 34, (R)-3-(2-(trans-4-((1-carbamimidoylpiperidin-4-yl)methylamino)cyclohexyl)acetamido)-2-hydroxy-3,4-dihydro-2H-benzo[e][1,2]oxaborinine-8-carboxylic acid] | < 4 | < 4 | < 4 | < 4 | 8 to 32 | < 4
6 | NC[C@H](N)C(=O)N[C@H]1CC[C@H](CC(=O)N[C@H]2Cc3cccc(C(=O)O)c3OB2O)CC1 [Example 13, (R)-3-(2-(trans-4-((S)-2,3-diaminopropanamido)cyclohexyl)acetamido)-2-hydroxy-3,4-dihydro-2H-benzo[e][1,2]oxaborinine-8-carboxylic acid] | < 4 | < 4 | 8 to 32 | < 4 | 8 to 32 | < 4
7 | O=C(C[C@H]1CC[C@H](NCCNC2CCCC2)CC1)N[C@H]1Cc2cccc(C(=O)O)c2OB1O [Example 73, (R)-3-(2-(trans-4-(2-(cyclopentylamino)ethylamino)cyclohexyl)acetamido)-2-hydroxy-3,4-dihydro-2H-benzo[e][1,2]oxaborinine-8-carboxylic acid] | < 4 | < 4 | < 4 | < 4 | < 4 | < 4
8 | N[C@H]1CC[C@H](C(=O)N[C@H]2Cc3cccc(C(=O)O)c3OB2O)CC1 [Example 2, (R)-3-(trans-4-aminocyclohexanecarboxamido)-2-hydroxy-3,4-dihydro-2H-benzol[e][1,2]oxaborinine-8-carboxylic acid] | < 4 | < 4 | < 4 | < 4 | < 4 | 8 to 32
9 | NC[C@H]1CC[C@H](C(=O)N[C@H]2Cc3cccc(C(=O)O)c3OB2O)CC1 [Example 1, (R)-3-(trans-4-(aminomethyl)cyclohexanecarboxamido)-2-hydroxy-3,4-dihydro-2H-benzo[e][1,2]oxaborinine-8-carboxylic acid] | < 4 | < 4 | < 4 | < 4 | < 4 | 8 to 32
10 | O=C(CC1CCCCC1)N[C@H]1Cc2cccc(C(=O)O)c2OB1O [Example 31, (R)-3-(2-cyclohexylacetamido)-2-hydroxy-3,4-dihydro-2H-benzo[e][1,2]oxaborinine-8-carboxylic acid] | < 4 | < 4 | 8 to 32 | 8 to 32 | > 32 | < 4
11 | NC1CCC(O)(CC(=O)N[C@H]2Cc3cccc(C(=O)O)c3OB2O)CC1 (stereo partly drawn) [Example 44, 3-[2-(4-Amino-1-hydroxy-cyclohexyl)-acetylamino]-2-hydroxy-3,4-dihydro-2H-benzo[e][1,2]oxaborinine-8-carboxylic acid] | < 4 | < 4 | < 4 | 8 to 32 | < 4 | 8 to 32
12 | O=C(C[C@H]1CC[C@H](N2CCNCC2)CC1)N[C@H]1Cc2cccc(C(=O)O)c2OB1O [Example 16, (R)-2-hydroxy-3-(2-(trans-4-(piperazin-1-yl)cyclohexyl)acetamido)-3,4-dihydro-2H-benzo[e][1,2]oxaborinine-8-carboxylic acid] | < 4 | < 4 | < 4 | 8 to 32 | > 32 | < 4

Other lines, results leading:

Row | MIC (E. coli ESBL4 CTX-M-15) [µg/mL] | MIC (E. cl 144200 p99 AmpC) [µg/mL] | MIC (K.P. 156319 KPC-3) [µg/mL] | MIC (P. aerug. Ps296 VIM-2) [µg/mL] | MIC (K.P. A-1797 KPC-2 VIM-4) [µg/mL] | MIC (S. aureus MSSA-7 PC-1) [µg/mL] | SMILES
13 | < 4 | < 4 | < 4 | 8 to 32 | 8 to 32 | < 4 | N[C@H]1CC[C@H](NCC(=O)N[C@H]2Cc3cccc(C(=O)O)c3OB2O)CC1 [Example 45, 3-[2-(4-Amino-cyclohexylamino)-acetylamino]-2-hydroxy-3,4-dihydro-2H-benzo[e][1,2]oxaborinine-8-carboxylic acid]
14 | < 4 | < 4 | < 4 | > 32 | > 32 | 8 to 32 | N[C@H]1CC[C@@H](CC(=O)N[C@H]2Cc3cccc(C(=O)O)c3OB2O)CC1 [Example 7, (R)-3-(2-(cis-4-aminocyclohexyl)acetamido)-2-hydroxy-3,4-dihydro-2H-benzo[e][1,2]oxaborinine-8-carboxylic acid]
15 | < 4 | < 4 | < 4 | 8 to 32 | 8 to 32 | < 4 | O=C(C[C@H]1CC[C@H](NCc2nccs2)CC1)N[C@H]1Cc2cccc(C(=O)O)c2OB1O [Example 39]
16 | < 4 | < 4 | < 4 | 8 to 32 | 8 to 32 | < 4 | O=C(C[C@H]1CC[C@H](NCc2cccnc2)CC1)N[C@H]1Cc2cccc(C(=O)O)c2OB1O [Example 27, (R)-2-hydroxy-3-(2-(trans-4-(pyridin-3-ylmethylamino)cyclohexyl)acetamido)-3,4-dihydro-2H-benzo[e][1,2]oxaborinine-8-carboxylic acid]
17 | < 4 | < 4 | < 4 | < 4 | < 4 | < 4 | O=C(C[C@H]1CC[C@H](NCCNCC2CC2)CC1)N[C@H]1Cc2cccc(C(=O)O)c2OB1O [Example 74, (R)-3-(2-(trans-4-(2-(cyclopropylmethylamino)ethylamino)cyclohexyl)acetamido)-2-hydroxy-3,4-dihydro-2H-benzo[e][1,2]oxaborinine-8-carboxylic acid]
18 | < 4 | < 4 | < 4 | 8 to 32 | < 4 | < 4 | N[C@@H](CO)CN[C@H]1CC[C@H](CC(=O)N[C@H]2Cc3cccc(C(=O)O)c3OB2O)CC1 [Example 65, (R)-3-(2-(trans-4-((R)-2-amino-3-hydroxypropylamino)cyclohexyl)acetamido)-2-hydroxy-3,4-dihydro-2H-benzol[e][1,2]oxaborinine-8-carboxylic acid]
19 | < 4 | < 4 | < 4 | < 4 | < 4 | < 4 | CN(C)CCN[C@H]1CC[C@H](CC(=O)N[C@H]2Cc3cccc(C(=O)O)c3OB2O)CC1 [Example 79, (R)-3-(2-(trans-4-(2-(dimethylamino)ethylamino)cyclohexyl)acetamido)-2-hydroxy-3,4-dihydro-2H-benzo[e][1,2]oxaborinine-8-carboxylic acid]
20 | < 4 | < 4 | < 4 | 8 to 32 | 8 to 32 | < 4 | N=CN[C@H]1CC[C@H](CC(=O)N[C@H]2Cc3cccc(C(=O)O)c3OB2O)CC1 [Example 30, (R)-3-(2-(trans-4-formimidamidocyclohexyl)acetamido)-2-hydroxy-3,4-dihydro-2H-benzo[e][1,2]oxaborinine-8-carboxylic acid]
